This is an account of results in publication PMC8143291, “Cytotoxicity and Microbicidal Activity of Commonly Used Organic Solvents: A Comparative Study and Application to a Standardized Extract from Vaccinium macrocarpon” (Toxics, 2021).

Where “and” joins values, the source holds several entries; their conditions need not be identical. Equal values may be shown once.

Data set [1] has as its system Y. enterocolitica IP 864 O: 3. Briefly: Broth microdilution MIC/MBC. The format is cell-based, Yersinia enterocolitica. The settings on record: 24 h exposure; v/v; n = 3. The text has this:
(§1) The bacterial strains used for AST of the solvents included: Staphylococcus aureus (ATCC 29213), Staphylococcus aureus—MRSA (NBIMCC 8327—resistant to methicillin and oxacillin, National Bulgarian Collection for Industrial Microorganisms and Cell Cultures, Sofia, Bulgaria), Streptococcus pyogenes (SAIMC 10535, Collection of the Stephan Angeloff Institute of Microbiology, Sofia, Bulgaria), Enterococcus faecalis (ATCC 29212), Escherichia coli (ATCC 35218), Pseudomonas aeruginosa (ATCC 27853), and Yersinia enterocolitica (IP864 O:3, Collection of Institut Pasteur, Paris, France). The selected strains are the most often investigated ones in the AST research studies in correspondence with the standard ISO 20776-1 Part 1: Reference method for testing the in vitro activity of antimicrobial agents against rapidly growing aerobic bacteria involved in infectious diseases. The antimycotic activity was tested on Candida albicans (CBS 562, Utrecht, The Netherlands). The strains S. aureus, MRSA, E. coli and E. faecalis were grown on Mueller–Hinton broth/agar (MHB/MHA); S. pyogenes, P. aeruginosa, Y. enterocolitica and C. albicans were grown on brain heart infusion (BHI) broth/agar; E. coli was also grown on Luria–Bertani broth/agar (LBB/LBA).
(§2) The minimum inhibitory concentration (MIC) for each solvent was estimated by the broth microdilution method (BMD) in 96-well microplates, following ISO 20776/1-2006 [3] and CLSI protocols. Briefly, a standardized bacterial inoculum was prepared from each bacterial species by suspending 3–4 colonies from a pure culture into 4 mL sterile saline. The turbidity of the inocula was adjusted to McFarland 0.5 (1.0 × 10^8 CFU/mL, λ = 600 nm), and 50 µL were resuspended in 10 mL of the appropriate culture medium for each strain. The bacterial inocula were added to microtiter trays containing equivalent volumes of medium loaded with the relevant solvent in concentrations varying from 0.025 to 25% volume fraction. The final volume of each sample was 100 µL/well. The plates were incubated at 37 °C for 24 h. The pure culture medium served as a negative control. Every MIC was evaluated visually as the lowest concentration without visible growth. […] MBC was defined as the lowest compound’s concentration reducing the colony growth of the initial bacterial inoculum by ≥ 99.9%.

Data set [2] relates to S. Aureus MRSA NBIMCC 8327. Briefly: Broth microdilution MIC/MBC. The format is cell-based, Staphylococcus aureus. As to conditions: 24 h exposure; v/v; n = 3.
Excerpt: as §1, §2
A general note: In broth dilution the organism is exposed to a series of concentrations in liquid medium.

For data set [3], the system named is S. Aureus ATCC 29213. Briefly: Broth microdilution MIC/MBC. The format is cell-based, Staphylococcus aureus. The settings on record: 24 h exposure; v/v; n = 3.
Excerpt: as §1, §2

For data set [4] the following is noted: no reference given; cited from earlier work.
Data set [5] deals with S. Aureus ATCC 29213. Briefly: Dehydrogenase activity (DEHA) MTT test after BMD. The format is cell-based, Staphylococcus aureus. The settings on record: 24 h exposure; % against untreated control; ± SD; n = 3. On the procedure:
(§3) The cell dehydrogenase (DEHA, redox, metabolic) activity of all samples was measured at the end of the BMD assay, based on reducing the MTT dye to formazan by the membrane located bacterial enzyme NADH: ubiquinone reductase (H^+-translocation). The protocol of Wang et al. was applied after minor modifications. Briefly, each sample was incubated for 120 min at 37 °C with MTT at a final concentration of 0.5 mg/mL in the culture medium. The resulting non-soluble violet formazan crystals were dissolved with an equal volume of 2-propanol supplemented with 5% formic acid. The absorbance was measured at 550 nm against a blank solution containing the respective volumes of MHB and MTT.
(§4) The cell viability is presented as a percentage of the untreated control. At least four wells were seeded for every concentration. Three independent assays were performed (n = 3). […] The respiratory activity of the bacterial cultures was calculated as a percentage against the untreated control.
(Tetrazolium assays rely on reduction of a dye to a coloured formazan, in cell work by metabolically active cells.)

The test system of data set [6] is Candida Albicans SAIMC 562. In words: Dehydrogenase activity (DEHA) MTT test after BMD. As to conditions: 24 h exposure; % active cells against untreated control; ± SD; n = 3. The format is cell-based. The protocol: as §3
(§5) The IC50 values from the MTT assay were evaluated with a non-linear regression analysis (Curve fit, GraphPad Prizm 6.01 software, GraphPad Software Inc., San Diego, CA, USA) using sigmoidal concentration–response curves. The cell viability is presented as a percentage of the untreated control. […] The maximum tolerated concentration (MTC) for the cell lines was determined from three independent assays according to ISO 10993-5 as the maximum concentration at which at least 70% of the cells were viable (nonlin fit, range, GraphPad Prizm 6.01 software) GraphPad Software Inc., San Diego, CA, USA). […] The respiratory activity of the bacterial cultures was calculated as a percentage against the untreated control.

Data set [7] concerns Y. enterocolitica IP 864 O: 3. In words: Dehydrogenase activity (DEHA) MTT test after BMD. It counts as cell-based, Yersinia enterocolitica. The settings on record: 24 h exposure; % against untreated control; ± SD; n = 3. On the procedure: as §3
The IC50 values from the MTT assay were evaluated with a non-linear regression analysis (Curve fit, GraphPad Prizm 6.01 software, GraphPad Software Inc., San Diego, CA, USA) using sigmoidal concentration–response curves. The cell viability is presented as a percentage of the untreated control. At least four wells were seeded for every concentration. Three independent assays were performed (n = 3). The maximum tolerated concentration (MTC) for the cell lines was determined from three independent assays according to ISO 10993-5 as the maximum concentration at which at least 70% of the cells were viable (nonlin fit, range, GraphPad Prizm 6.01 software) GraphPad Software Inc., San Diego, CA, USA). To compare the MTC values of the solvents for each cell line, the ordinary One-way ANOVA statistical analysis based on Tukey’s multiple comparisons test with a single pooled variance (GraphPad Prizm 6.01 software) GraphPad Software Inc., San Diego, CA, USA) was utilized, and p ≤ 0.05 was set as a significance level. The respiratory activity of the bacterial cultures was calculated as a percentage against the untreated control.

Data set [8] concerns E. coli ATCC 35218. In words: Broth microdilution MIC/MBC. It counts as cell-based, Escherichia coli. The settings on record: 24 h exposure, v/v, n = 3.
Excerpt: as §1, §2

Data set [9] relates to E. faecalis ATCC 29212. Briefly: Broth microdilution MIC/MBC. The format is cell-based, Enterococcus faecalis. The settings on record: 24 h exposure; v/v; n = 3.
Excerpt: as §1, §2

In data set [10] the test system is S. pyogenes SAIMC 10535. In words: Broth microdilution MIC/MBC. The format is cell-based, Streptococcus pyogenes. The settings on record: 24 h exposure; v/v; n = 3.
Excerpt: as §1, §2

Data set [11] concerns P. aeruginosa ATCC 27853. Briefly: Broth microdilution MIC/MBC. The format is cell-based, Pseudomonas aeruginosa. The settings on record: 24 h exposure; v/v; n = 3.
Excerpt: as §1, §2

Data set [12] relates to Candida Albicans SAIMC 562. Briefly: Broth microdilution MIC/MBC. It counts as cell-based. The settings on record: 24 h exposure; v/v; n = 3.
Excerpt: as §1, with “The antimycotic activity was tested on Candida albicans (CBS 562, Utrecht, The Netherlands).” left out
as §2

In data set [13] the test system is S. pyogenes SAIMC 10535. In words: Dehydrogenase activity (DEHA) MTT test after BMD. The format is cell-based, Streptococcus pyogenes. The settings on record: 24 h exposure; % against untreated control; ± SD; n = 3. The protocol:
as §3, §4

Data set [14] concerns P. aeruginosa ATCC 27853. Briefly: Dehydrogenase activity (DEHA) MTT test after BMD. The format is cell-based, Pseudomonas aeruginosa. As to conditions: 24 h exposure; % against untreated control; ± SD; n = 3. On the procedure: as §3, §4
In data set [15] the test system is E. faecalis ATCC 29212. Briefly: Dehydrogenase activity (DEHA) MTT test after BMD. The format is cell-based, Enterococcus faecalis. The settings on record: 24 h exposure; % against untreated control; ± SD; n = 3. The protocol:
as §3, §4

The test system of data set [16] is E. coli ATCC 35218. Briefly: Dehydrogenase activity (DEHA) MTT test after BMD. It counts as cell-based, Escherichia coli. The settings on record: in MHB; 24 h exposure; % against untreated control; ± SD; n = 3. The protocol:
as §3, §5

A further data set has as its system S. epidermidis. More on the design: method as in doi:10.5580/b43. As to conditions: in the presence of 6% solvent; cited from earlier work.
Data set [17] relates to breast cancer, mouse macrophage and human umbilical vein endothelial cells. Set-up: method as in doi:10.17795/ajmb-33453. The settings on record: cited from earlier work.
Data set [18] relates to Chinese hamster liver cell line. The settings on record: cited from earlier work.

`COCCOC` [DME, 1,2-dimethoxyethane]: the MBC was found to be 6.25% in data set [1]; 3.125% in [2]; 12.5% with S. Aureus ATCC 29213 [3]; 6.25% against E. coli ATCC 35218 [8] (in LBB); 12.5% in the data set on E. coli ATCC 35218 [8] (in MHB); 12.5% in the data set on E. faecalis ATCC 29212 [9]. Besides, the MBC is on record as >25% in the data set on S. pyogenes SAIMC 10535 [10], 12.5% with P. aeruginosa ATCC 27853 [11] and 25% in data set [12]. For the same compound, the MIC is given as 3.125% in data set [1]; 3.125% in data set [2]; 6.25% in the data set with S. Aureus ATCC 29213 [3]; 3.125% in the data set with E. coli ATCC 35218 [8] (in LBB); 12.5% against E. coli ATCC 35218 [8] (in MHB); 12.5% in the data set with E. faecalis ATCC 29212 [9]. Moreover, the values for the MIC (against S. pyogenes SAIMC 10535 [10]; in the data set with P. aeruginosa ATCC 27853 [11]; in data set [12]) were 6.25%, 12.5% and 12.5%, respectively. The “Experimental logP” value in data set [4] is reported as −0.21. Besides, the “DEHA (dehydrogenase activity)” value in the data set on S. Aureus ATCC 29213 [5] is 12.54 ± 0.03%; in [6] it was 31.23% and 31.23 ± 0.01%; in data set [7] it was 49.04 ± 0.005%; in the data set with S. pyogenes SAIMC 10535 [13], 31.32 ± 0.05%.
For the compound `COCCO` [MEtOH, 2-methoxyethanol], the MBC in data set [1] is given as 25%; in data set [2] it was 25%; against S. Aureus ATCC 29213 [3], >25%; with E. coli ATCC 35218 [8] (in LBB), 12.5%; against E. coli ATCC 35218 [8] (in MHB) it was 25%; in the data set with E. faecalis ATCC 29212 [9], >25%. Also, the MBC in the data set on S. pyogenes SAIMC 10535 [10] is recorded as >25%; against P. aeruginosa ATCC 27853 [11] it was 25%; in data set [12], 12.5%. Moreover, the MIC in data set [1] turned out to be 12.5%; in [2], 25%; against S. Aureus ATCC 29213 [3], 25%; against E. coli ATCC 35218 [8] (in LBB), 12.5%; in the data set with E. coli ATCC 35218 [8] (in MHB), 12.5%; in the data set with E. faecalis ATCC 29212 [9], 12.5%. In addition, the MIC is recorded as 12.5% with S. pyogenes SAIMC 10535 [10], 6.25% in the data set on P. aeruginosa ATCC 27853 [11] and 6.25% in data set [12]. For the same compound, the “DEHA (dehydrogenase activity)” value came out at 20.23 ± 0.06% in the data set on P. aeruginosa ATCC 27853 [14]; 10.27 ± 0.01% with S. Aureus ATCC 29213 [5]; 77.41 ± 0.03% in [6]; 11.76 ± 0.004% in data set [7]; 25.60 ± 0.04% in the data set on E. faecalis ATCC 29212 [15]; 5.86 ± 0.005% in the data set with E. coli ATCC 35218 [16]. Further, the “DEHA (dehydrogenase activity)” value in the data set with S. pyogenes SAIMC 10535 [13] is 28.02 ± 0.02%. In data set [4], the “Experimental logP” value was −0.77.
As for `CO` [MeOH, methanol], the MBC (in [1]; in data set [2]; against S. Aureus ATCC 29213 [3]; in the data set on E. coli ATCC 35218 [8] (in LBB); against E. coli ATCC 35218 [8] (in MHB); against E. faecalis ATCC 29212 [9]) was >25% each time. The MBC (against S. pyogenes SAIMC 10535 [10]; against P. aeruginosa ATCC 27853 [11]; in data set [12]) was >25% throughout. Also, the MIC (in data set [1]; in data set [2]; against S. Aureus ATCC 29213 [3]; with E. coli ATCC 35218 [8] (in LBB); against E. coli ATCC 35218 [8] (in MHB); in the data set on E. faecalis ATCC 29212 [9]) was >25% in each case. The MIC (in the data set on S. pyogenes SAIMC 10535 [10]; in the data set with P. aeruginosa ATCC 27853 [11]; in data set [12]) was >25% each time. For the same compound, the “Experimental logP” value in data set [4] was −0.77. Further, the survival with S. epidermidis is reported as 26%.
In the case of `CC(C)=O` [acetone], the “maximum tolerated concentration (MTC) / applicable concentration” value in [17] was “up to 0.5 % v/v”.
PEG-200: the clastogenic concentrations in [18] is 5 to 7 mM.
